US9481885B2, “Methods and compositions related to miR-21 and miR-29a, exosome inhibition, and cancer metastasis” (Ohio State Innovation Foundation, priority 2011, dated 2016)

How the values were obtained:
TLR8-HEK-293 cells = experiment: NF-κB activation in TLR8-HEK-293 cells treated with LLC exosomes, with or without Bafilomycin A; assay type: cell-based, human; conditions: TLR8-HEK-293 cells pretreated with 10 nM Bafilomycin A; P<0.0005
Procedure: Next, LLC cells were injected into the tails of WT and TLR7^−/− mice and the overall survival of the animals and number of lung multiplicities after necropsy was assessed. […] For the experiment with Bafilomycin A, TLR8-HEK-293 cells were seeded in a 24-well plate at a density of 200,000 cells per well. The next day cells were preincubated with 10 nM Bafilomycin A (Sigma) for 30 min and then were treated for 24 h with exosomes purified from LLC cells in the presence or absence of 10 nM Bafilomycin A. Cell supernatants were collected and harvested, and the QUANTI-Blue Assay was performed. NF-κB activity was assessed by QUANTI-Blue Assay (Invivogen). HEK-Blue-TLR7 and TLR8 293 cells allow verification of the activation of NF-κB after the stimulation of the respective TLRs. Both these cell lines were obtained by co-transfection of the TLR7 and 8 genes and an optimized secreted embryonic alkaline phosphatase reporter gene (SEAP) under the control of the […] minimal promoter fused to five NF-κB and AP-1-binding sites into HEK-293 cells. […] Levels of SEAP can be easily determined with QUANTI-Blue, a detection medium that turns purple/blue in the presence of alkaline phosphatase. […] The plate was then incubated at 37° C. for 1-3 h and SEAP levels were determined by reading the plate with a spectrophotometer at 620-655 nm (SpectraMax, Molecular Devices).

LLC cells = experiment: Lung multiplicities in LLC-injected B6 mice treated with GW4869, with exosome rescue; assay type: in vivo, mouse; conditions: WT B6 mice injected with LLC cells; GW4869 i.p. 1.25 mg/kg/d for 5 d
Procedure: Finally, to assess the role of miRNAs released from lung cancer exosomes in TLR7 activation and in the metastatic process, the expression was silenced of miR-16 or of miR-21 and -29a combined in LLC cells by Locked Nucleic Acid (LNA) anti-miRNA inhibitors. After anti-miRNA transfection, the levels of the silenced miRNAs were reduced in the exosomes derived from these cells (FIG. 7F). The transfected cells were injected into the tail vein of B6 mice, and lung multiplicities were counted. […] We further investigated which miRNAs are expressed in cancer cells and adjacent normal lung tissues in mice injected with anti-scrambled LLCs or anti-miR-21/29a LLCs. Cancer cells in lung tumors developed by mice injected with anti-scrambled LLC were positive for the anti-scrambled oligonucleotide.
The in vivo rescue experiment with LLC cells was conducted in 15 male, 7-wk-old B6 mice. Mice were injected with 1.8×10^6 LLC cells in the tail vein in 300 μL of volume (T0). After 4 d (T4), i.p. injections were started for 10 mice with GW4869 (1.25 mgkg^−1d^−1), an inhibitor of exosome secretion also able to reduce the content of miRNAs in secreted exosomes, and of five mice with DMSO (a solvent of GW4869) as a control, daily for 5 d consecutively. […] All mice were killed at T18, necropsy was performed, and lung multiplicities were counted.

SMILES | NF-κB activation by LLC-derived exosomes in the presence of Bafilomycin A (TLR8-HEK-293 cells) | number of lung multiplicities (LLC cells)
CO/C1=C\C(C)=C\[C@@H](C)[C@@H](O)[C@@H](C)C/C(C)=C/C=C/[C@H](OC)[C@@H]([C@@H](C)[C@@H](O)[C@H](C)[C@@]2(O)C[C@@H](O)[C@H](C)[C@@H](C(C)C)O2)OC1=O [Bafilomycin A] | significantly reduced | –
O=C(/C=C/c1ccc(/C=C/C(=O)Nc2ccc(C3=NCCN3)cc2)cc1)Nc1ccc(C2=NCCN2)cc1 [GW4869] | – | significantly lower
